From patent US20080027104A1, “Novel Crystalline Forms 2” (AstraZeneca AB, priority 2006, published 2008)

How the values were obtained:
Format in all cases: physicochemical
[1] = Thermogravimetric analysis of crystalline form; conditions: range from 25° C. up to 205° C.
Method: (§1) The crystalline forms may be further characterised by the presence of one or more of the additional properties listed below: • (i) for Form I • (I) when characterised by thermogravimetric analysis, a weight loss of approx. 0.8% occurs in the range from 25° C. up to 205° C., and/or • (II) when characterised by differential scanning calorimetry, at a heating rate of 10° C. per minute in a closed cup with a pinhole under flowing nitrogen, a melting temperature (Tm) having an onset at about 194° C. and/or an associated endotherm of melting of about 96 J/g; and/or • (III) when stored at 80% RH (ambient) less than 0.2% moisture is adsorbed. • (i) for Form II • (I) when characterised by thermogravimetric analysis, a weight loss of approx. 0.2% occurs in the range from 25° C. up to 205° C., and/or • (II) when characterised by differential scanning calorimetry, at a heating rate of 10° C. per minute in a closed cup with a pinhole under flowing nitrogen, a melting temperature (Tm) having an onset at about 193° C. and/or an associated endotherm of melting of about 105 J/g.

[2] = Moisture adsorption on storage at 80% RH; conditions: stored at 80% RH (ambient)
Method: as §1

[3] = Thermodynamic stability of crystal form; conditions: crystallised from THF/ethanol

Compound | weight loss by thermogravimetric analysis [1] | moisture adsorbed [2] | thermodynamic stability of crystal form [3]
CCOC(=O)c1cc(C#N)c(N2CCC(C(=O)NS(=O)(=O)Cc3ccccc3)CC2)nc1C [Form I, 6-(4-{[(benzylsulfonyl)amino]carbonyl}piperidin-1-yl)-5-cyano-2-methylnicotinic acid ethyl ester] | approx. 0.8% | less than 0.2% | 
CCOC(=O)c1cc(C#N)c(N2CCC(C(=O)NS(=O)(=O)Cc3ccccc3)CC2)nc1C [Form II, 6-(4-{[(benzylsulfonyl)amino]carbonyl}piperidin-1-yl)-5-cyano-2-methylnicotinic acid ethyl ester] | approx. 0.2% |  | thermodynamically stable form
